Experimental findings from US9249453B2, “Method for identifying a malodor inhibitor” (Kao Corporation, priority 2011, dated 2016) are described below.

Assay [1] concerns the target T1, OR2W1 (Homo sapiens, UniProt Q9Y3N9).
T1 construct: expressed in transfected cells; host or cells: HEK293
T1 sequence (Q9Y3N9 1-320): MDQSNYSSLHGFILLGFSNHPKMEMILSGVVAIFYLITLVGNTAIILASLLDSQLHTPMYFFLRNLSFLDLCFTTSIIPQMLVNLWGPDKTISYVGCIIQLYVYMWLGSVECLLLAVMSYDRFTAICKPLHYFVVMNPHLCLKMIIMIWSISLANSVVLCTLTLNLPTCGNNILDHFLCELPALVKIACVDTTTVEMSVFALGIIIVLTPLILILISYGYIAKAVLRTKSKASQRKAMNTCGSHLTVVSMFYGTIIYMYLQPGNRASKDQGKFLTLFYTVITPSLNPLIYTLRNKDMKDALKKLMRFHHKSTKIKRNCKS
As to the kind of experiment: Luciferase reporter assay: suppression of the skatole response of OR2W1 expressed in HEK293 cells. In kind it is cell-based. As to conditions: 4 h; test substance 100 μM mixed with 300 μM skatole, HEK293 cells expressing OR2W1; read-out: Inhibition rate 2W1. (Reporter assays use an easily measured gene product as a stand-in for the process of interest.)

The target in assay [2] is T2, OR5P3 (Homo sapiens, UniProt Q8WZ94).
T2 construct: expressed in transfected cells; host or cells: HEK293
T2 sequence (Q8WZ94 1-311): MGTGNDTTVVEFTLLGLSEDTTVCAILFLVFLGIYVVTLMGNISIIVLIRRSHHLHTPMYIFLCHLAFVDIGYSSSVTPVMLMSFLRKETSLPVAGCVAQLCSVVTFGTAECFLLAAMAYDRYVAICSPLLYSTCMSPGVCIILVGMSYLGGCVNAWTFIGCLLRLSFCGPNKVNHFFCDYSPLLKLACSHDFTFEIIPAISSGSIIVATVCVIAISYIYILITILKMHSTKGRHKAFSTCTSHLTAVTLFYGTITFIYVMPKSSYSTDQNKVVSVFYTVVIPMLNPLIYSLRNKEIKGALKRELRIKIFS
As to the kind of experiment: Luciferase reporter assay: suppression of the skatole response of OR5P3 expressed in HEK293 cells. In kind it is cell-based. As to conditions: test substance 100 μM mixed with 300 μM skatole, HEK293 cells expressing OR5P3.

A short description of assay [3]: Sensory test by panelists: suppression of hexanoic acid odor. As to conditions: Example 6: hexanoic acid 1% and test substance 1% in propylene glycol, n=3, FIG. 5. In kind it is in vivo. The protocol: (§1) A cotton ball was put into a glass bottle (Hakuyo. Glass No. 11, capacity: 110 mL), and skatole diluted by 0.001% with propylene glycol (20 μL) and a test substance also diluted by 0.001% (20 μL) were added to the cotton ball. The glass bottle was left to stand for one night at room temperature, to thereby sufficiently evaporate the odorant molecule. The sensory test was performed by four panelists. In the case where skatole alone was added to a glass bottle, the odor intensity was rated to 5. Then, the malodor intensity in the case where skatole and a test substance were added was evaluated with a rating of 0 to 10 (by 0.5) (i.e., 20 ratings) In order to investigate specificity of malodor suppressing effect of a test substance identified in Example 4, the sensory test was also performed with hexanoic acid, a malodorous compound but structurally differs from skatole. In the experiment, hexanoic acid diluted by 1% with propylene glycol was used as a malodorous compound, and methyl dihydrojasmonate diluted by 1% with propylene glycol was used as a test substance.

Assay [4] deals with T3, OR5K1 (Homo sapiens, UniProt Q8NHB7).
T3 construct: expressed in transfected cells; host or cells: HEK293
T3 sequence (Q8NHB7 1-308): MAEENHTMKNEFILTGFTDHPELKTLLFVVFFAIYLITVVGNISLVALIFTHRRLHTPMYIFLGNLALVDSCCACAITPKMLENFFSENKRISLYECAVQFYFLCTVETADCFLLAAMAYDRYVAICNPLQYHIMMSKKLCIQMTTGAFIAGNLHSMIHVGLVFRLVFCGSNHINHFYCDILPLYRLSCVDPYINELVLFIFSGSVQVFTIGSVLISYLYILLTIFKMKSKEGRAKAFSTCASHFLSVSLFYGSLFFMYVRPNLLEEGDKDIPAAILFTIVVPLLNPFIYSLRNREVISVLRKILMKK
As to the kind of experiment: Luciferase reporter assay: suppression of the skatole response of OR5K1 expressed in HEK293 cells. In kind it is cell-based. The note with it: 4 h; test substance 100 μM mixed with 300 μM skatole, HEK293 cells expressing OR5K1; read-out: Inhibition rate 5K1.

Assay [5] has as its target T4, OR8H1 (Homo sapiens, UniProt Q8NGG4).
T4 construct: expressed in transfected cells; host or cells: HEK293
T4 sequence (Q8NGG4 1-311): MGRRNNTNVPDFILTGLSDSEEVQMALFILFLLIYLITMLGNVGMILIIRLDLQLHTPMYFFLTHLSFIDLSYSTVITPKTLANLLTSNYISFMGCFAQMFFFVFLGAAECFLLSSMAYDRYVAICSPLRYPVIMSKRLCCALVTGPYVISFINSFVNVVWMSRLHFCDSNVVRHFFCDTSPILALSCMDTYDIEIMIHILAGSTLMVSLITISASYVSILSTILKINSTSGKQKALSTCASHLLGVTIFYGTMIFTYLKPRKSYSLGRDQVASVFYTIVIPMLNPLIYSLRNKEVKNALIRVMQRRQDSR
As to the kind of experiment: Luciferase reporter assay: suppression of the skatole response of OR8H1 expressed in HEK293 cells. In kind it is cell-based. The note with it: 4 h; test substance 100 μM mixed with 300 μM skatole, HEK293 cells expressing OR8H1; read-out: Inhibition rate 8H1.

Assay [6] can be described thus: Sensory test by panelists: suppression of skatole odor. In kind it is in vivo. The note with it: Example 6: test substance diluted by 1% with propylene glycol, n=3, FIG. 5. The protocol:
as §1, with “Glass No. 11, capacity: 110 mL), and skatole diluted by 0.001% with propylene glycol (20 μL) and a test substance also diluted by 0.001% (20 μL) were added to the cotton ball.” left out

The target in assay [7] is T1, OR2W1. As to the kind of experiment: Luciferase reporter assay: odorant response of OR2W1 expressed in HEK293 cells. In kind it is cell-based. The protocol:
(§2) Each of the 369 types of human olfactory receptors was expressed in HEK293 cells. A reaction solution having a composition shown in Table 1 was prepared on a clean bench, and left to stand for 15 minutes. The solution was dispensed to each well of a 96-well plate (BD). Subsequently, HEK293 cells (100 μL, 3×10^5 cells/cm^2) were seeded in each well and cultured for 24 hours in an incubator at 37° C. and under 5% CO2 conditions.
(§3) The olfactory receptor expressed in HEK293 cells activates adenylate cyclase with the aid of Gαs present in cells, to thereby increase intracellular cAMP level. In this study, odorant response was measured by a luciferase reporter gene assay which monitored the intracellular cAMP level as the luminescence value derived from a firefly luciferase gene (fluc2P-CRE-hygro). Also, a Renilla luciferase gene fused downstream of a CMV promoter (hRluc-CMV) was also transfected to HEK293 cells as an internal standard to correct errors in gene transfer efficiency and number of cells.
(§4) The culture medium was removed from the culture plate produced in (3) above, and a solution (75 μL) containing an odorant substance (1 mM skatole) in CD293 medium (Invitrogen) was added to each well. […] Luciferase activity was measured by means of a Dual-Glo™ luciferase assay system (promega) according to an instruction manual thereof. The luminescence value derived from firefly luciferase induced by odorant stimulation was divided by the luminescence value of cells which were not stimulated with odorants. […]
(§5) In a manner similar to that employed in Example 1, each of olfactory receptor OR2W1 (SEQ ID NO: 2), OR5K1 (SEQ ID NO: 4), OR5P3 (SEQ ID NO: 6), and OR8H1 (SEQ ID NO: 8) was expressed with RTP1S mutant (SEQ ID NO: 12) in HEK293 cells. The response of each receptor to skatole (0, 3, 10, 30, 100, 300, and 1000 μM) was determined.
(§6) In a manner similar to that employed in Example 2, the response of each olfactory receptor to skatole and indole (each 0, 3, 10, 30, 100, 300, and 1000 μM) was determined.

For assay [8], the target named is T4, OR8H1. Kind of assay: Luciferase reporter assay: odorant response of OR8H1 expressed in HEK293 cells. In kind it is cell-based. As for the experimental part:
as §2, §3, §4, §5, §6

Assay [9] deals with T2, OR5P3. Kind of assay: Luciferase reporter assay: odorant response of OR5P3 expressed in HEK293 cells. It counts as cell-based. The protocol:
as §2, §3, §4, §5, §6

For assay [10], the target named is T3, OR5K1. Kind of assay: Luciferase reporter assay: odorant response of OR5K1 expressed in HEK293 cells. In kind it is cell-based. The protocol: as §2, §3, §4, §5, §6

One may read the inhibition as the share of the control response that was lost under treatment.

Each structure is given as a SMILES string. Entries after “also recorded” stand apart in the source; their conditions may differ.

Turning to `CCCCCC1C(=O)CCC1CC(=O)OC` (centres unmarked) [methyl dihydrojasmonate, Methyl 2-penthyl-3-oxocyclopent-1-yl acetate], the inhibition at 100 µM in assay [1] is 50 to 80%; in assay [4], < 20%; in [5], 50 to 80%. Further, the “Inhibition rate 5P3” value in [2] was “B (B >50%)”. Also, the “suppression effect on hexanoic acid odor” value in assay [3] was “did not suppress hexanoic acid odor”. For the same molecule, the “suppression effect on skatole odor” value in [6] was “suppressed skatole odor”.
As to `Cc1c[nH]c2ccccc12` [skatole], the “response of olfactory receptor at different concentration” value in [7] (0, 3, 10, 30, 100, 300, and 1000 μM odorant, OR2W1, FIG. 2/3) is given as “dose-dependent response; also recorded: exhibited a response”; in assay [8] (0, 3, 10, 30, 100, 300, and 1000 μM odorant, OR8H1, FIG. 2/3) it was “dose-dependent response; also recorded: exhibited a response”; in assay [9] (0, 3, 10, 30, 100, 300, and 1000 μM odorant, OR5P3, FIG. 2/3), “dose-dependent response; also recorded: exhibited a response”; in assay [10] (0, 3, 10, 30, 100, 300, and 1000 μM odorant, OR5K1, FIG. 2/3), “dose-dependent response; also recorded: exhibited a response”. Also, the “response of olfactory receptor (fold increase)” value is recorded as “exhibited response” in assay [7] (1 mM odorant, OR2W1, FIG. 1); “exhibited response” in assay [8] (1 mM odorant, OR8H1, FIG. 1); “exhibited response” in assay [9] (1 mM odorant, OR5P3, FIG. 1); “exhibited response” in assay [10] (1 mM odorant, OR5K1, FIG. 1).
